The subject of series [1] is promoter regions of Nanog and Oct4. Description: Chromatin immunoprecipitation of histone 3 methylation at Nanog and Oct4 promoters. The format is cell-based, human. The protocol: Formaldehyde was added to a cell culture to fix the cells, and then the chromatin was fragmented to a suitable size by sonication. The chromatin was immunoprecipitated with antibodies to lysine residues 4 and 27 of histone 3, and then the DNA was collected and amplified by real-time polymerase chain reaction using primers for the Oct4 and Nanog promoter regions.

In series [2] the test system is human fibroblasts transfected with reprogramming factor OSKM. Description: Quantification of protein damage caused by oxidative stress. The format is cell-based. The conditions noted are these: 1 mM. As to the method:
On days 12, 19 and 26 of induction of reprogramming, protein was isolated from a control group and a nicotinamide-treated group (Nam), after which it was quantified and treated with 2,4-dinitrophenylhydrazine to expose the carbonyl group. The protein was separated according to molecular weight using 10% SDS-polyacrylamide gel, and then protein damage caused by oxidative stress was analyzed using dinitrophenyl antibody. After normalization to the expression level of β-actin, the degree of damage was quantified relative to the degree of damage to hFFs taken as 1.

Series [3] deals with human pluripotent stem cells. Description: Long-term subculture in UM with nicotinamide (TRA-1-60 staining, karyotyping). The format is cell-based.
For another series, the system named is embryonic stem cells. Description: Embryonic stem cells treated with NAD+ synthesis inhibitor FK866 and NAD precursors (NAD level, AP activity, apoptosis). Format: cell-based, human. To be noted: co-treatment with FK866; also in mTeSR1-CDM. As to the method:
Embryonic stem cells were treated with nicotinamide and related compounds, and after 6 days, protein was isolated from the cells. NAD cycling enzyme was added to and reacted with 20 μg of the protein per each group at room temperature for 5 minutes, and then a NADH developer was added and reacted therewith for 2-3 hours. The absorbance at 450 nm was measured using a microplate reader, and the amount of the […] was quantified.
AP staining was performed using a commercial AP kit (Sigma) according to the manufacturer's instruction. Images of AP-positive cells were recorded with HP Scanjet G4010. Also, bight field images were obtained with an Olympus microscope (IX51, Olympus, Japan).
In order to examine the effect of nicotinamide on a reduction in the apoptosis of human pluripotent stem cells, dual apoptosis assay (Biotium, Hayward, Calif.) was performed. Embryonic stem cells or cells reprogrammed were stained with NucView™488 Caspase-3 Substrate (green)/Annextin V (red) at room temperature for 30 minutes, followed by washing with PBS. At least 4 sections of each sample were imaged with an Olympus fluorescence microscope (IX51, Olympus), and the number of cells stained with green (Caspase-3) was counted to quantify the degree of apoptosis.

Consider one molecule from patent publication US20150072416A1, “METABOLITE FOR IMPROVING PRODUCTION, MAINTENANCE AND PROLIFERATION OF PLURIPOTENT STEM CELLS, COMPOSITION COMPRISING THE SAME, AND METHOD OF CULTURING PLURIPOTENT STEM CELL USING THE SAME” (KOREA RESEARCH INSTITUTE OF BIOSCIENCE AND BIOTENOLOGY, priority 2012, published 2015).

Consider `NC(=O)c1cccnc1` [nicotinamide], for which, in series [1], the “methylation of lysine residue 4 of histone 3 in promoter regions of Nanog and Oct4” value is reported as “increased”; the “methylation of residue 27 of histone 3 in promoter regions of Nanog and Oct4” value was “decreased”. Moreover, the “amount of damaged protein (oxidative stress)” value in series [2] was “decreased”. In addition, the “passages subcultured in an undifferentiated state” value in series [3] (UM with 0.1 mM nicotinamide, TRA-1-60 staining) was not below 10 passages. The “karyotype after long-term subculture” value in series [3] (nicotinamide-containing medium) is on record as “normal karyotypes”. Further, the “recovery from damage caused by FK866” value with embryonic stem cells is “recovered”.
